# Measured values from patent US12344597B2, “Alkoxy-substituted pyridinyl derivatives as LPA1 receptor antagonists and their use in the treatment of fibrosis” (IDORSIA PHARMACEUTICALS LTD, priority 2018, dated 2025).
# Target: human LPA1 receptor (Homo sapiens (Human), UniProt Q92633)
# Experiment: Beta-arrestin recruitment assay to determine IC50 values for human LPAR1
# Type: cell-based
# Settings: antagonist mode, Tango EDG2-bla U2OS cells, LPA 18:1 500 nM final
# How it was run: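 Antagonist IC50 = concentration giving 50% inhibition of maximal LPA response. Read-out is beta-lactamase reporter activity after arrestin-protease recruitment in U2OS cells bearing LPA1-TEV-Gal4-VP16 construct; cells pre-incubated 20 h, 37 °C, 5% CO2.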
# Chain of human LPA1 receptor (Q92633 whole entry): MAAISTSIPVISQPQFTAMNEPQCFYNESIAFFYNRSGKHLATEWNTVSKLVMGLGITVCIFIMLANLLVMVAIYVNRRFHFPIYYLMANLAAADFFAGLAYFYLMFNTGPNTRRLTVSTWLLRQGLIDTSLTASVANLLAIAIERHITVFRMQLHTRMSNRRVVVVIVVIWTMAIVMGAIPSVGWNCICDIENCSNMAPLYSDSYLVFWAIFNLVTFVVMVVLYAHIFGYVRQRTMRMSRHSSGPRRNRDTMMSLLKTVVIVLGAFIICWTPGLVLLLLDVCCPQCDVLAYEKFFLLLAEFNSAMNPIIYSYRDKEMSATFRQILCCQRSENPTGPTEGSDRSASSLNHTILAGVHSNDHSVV
row,SMILES,IC50 [nM]
1,"Cc1ccc(NC(=O)C2(c3ccccc3C(C)C)CCN(CCO)CC2)c(OC(F)F)n1 [Ex 11-3, N-(2-(difluoromethoxy)-6-methylpyridin-3-yl)-1-(2-hydroxyethyl)-4-(2-isopropylphenyl)piperidine-4-carboxamide]",32
2,"Cc1ccc(NC(=O)C2(c3ncccc3C(C)C)CN(C(=O)CCC(=O)O)C2)c(OC(F)F)n1 [Ex 61, 4-(3-((2-(difluoromethoxy)-6-methylpyridin-3-yl)carbamoyl)-3-(3-isopropylpyridin-2-yl)azetidin-1-yl)-4-oxobutanoic acid]",70
3,"CC(C)c1ccccc1C1(C(=O)Nc2ncc(Br)cc2OC(F)F)CNC1 [Ex 73, N-(5-bromo-3-(difluoromethoxy)pyridin-2-yl)-3-(2-isopropylphenyl)azetidine-3-carboxamide]",10
4,"Cc1ccc(NC(=O)C2(c3ccccc3C(C)C)CN(CCCC(C)(C)N)C2)c(OC(F)F)n1 [Ex 11-94, 1-(4-amino-4-methylpentyl)-N-(2-(difluoromethoxy)-6-methylpyridin-3-yl)-3-(2-isopropylphenyl)azetidine-3-carboxamide]",64
5,"Cc1ccc(NC(=O)C2(c3ccccc3C(C)C)CN(C(=O)C[C@@H](O)CC(=O)O)C2)c(OC(F)F)n1 [Ex 12-105, (R)-5-(3-((2-(difluoromethoxy)-6-methylpyridin-3-yl)carbamoyl)-3-(2-isopropylphenyl)azetidin-1-yl)-3-hydroxy-5-oxopentanoic acid]",54
6,"Cc1ccc(NC(=O)C2(c3ccccc3C(C)C)CN(C(=O)CCc3cc(O)no3)C2)c(OC(F)F)n1 [Ex 12-29, N-(2-(difluoromethoxy)-6-methylpyridin-3-yl)-1-(3-(3-hydroxyisoxazol-5-yl)propanoyl)-3-(2-isopropylphenyl)azetidine-3-carboxamide]",32
7,"Cc1ccc(NC(=O)C2(c3ccccc3C(C)C)CN(C(=O)CCOCC(=O)O)C2)c(OC(F)F)n1 [Ex 12-110, 2-(3-(3-((2-(difluoromethoxy)-6-methylpyridin-3-yl)carbamoyl)-3-(2-isopropylphenyl)azetidin-1-yl)-3-oxopropoxy)acetic acid]",66
8,"Cc1ccc(NC(=O)C2(c3ccccc3C(C)C)CN(CCC(C)(C)O)C2)c(OC(F)F)n1 [Ex 11-9, N-(2-(difluoromethoxy)-6-methylpyridin-3-yl)-1-(3-hydroxy-3-methylbutyl)-3-(2-isopropylphenyl)azetidine-3-carboxamide]",14
9,"Cc1ccc(NC(=O)C2(c3ccccc3C(C)C)CCN(C(=O)CC(C)(C)C(=O)O)C2)c(OC(F)F)n1 (stereo not shown) [Ex 12-83, 4-(3-((2-(difluoromethoxy)-6-methylpyridin-3-yl)carbamoyl)-3-(2-isopropylphenyl)pyrrolidin-1-yl)-2,2-dimethyl-4-oxobutanoic acid]",24

# Next, values leading:
row,IC50 [nM],SMILES
1,12,"Cc1ccc(NC(=O)C2(c3ccccc3C(C)C)CN(C(=O)OCC(=O)O)C2)c(OC(F)F)n1 [Ex 14-1, 2-((3-((2-(difluoromethoxy)-6-methylpyridin-3-yl)carbamoyl)-3-(2-isopropylphenyl)azetidine-1-carbonyl)oxy)acetic acid]"
2,4,"COc1ccc(NC(=O)C2(c3ccccc3C(C)C)CN(S(N)(=O)=O)C2)c(OC)n1 [Ex 15-7, N-(2,6-dimethoxypyridin-3-yl)-3-(2-isopropylphenyl)-1-sulfamoylazetidine-3-carboxamide]"
3,18,"COC(=O)CC(C)(C)NC(=O)N1CC(C(=O)Nc2ccc(C)nc2OC(F)F)(c2ccccc2C(C)C)C1 [Ex 17-1, Methyl 3-(3-((2-(difluoromethoxy)-6-methylpyridin-3-yl)carbamoyl)-3-(2-isopropylphenyl)azetidine-1-carboxamido)-3-methylbutanoate]"
4,11,"Cc1ccc(NC(=O)C2(c3ccccc3C(C)C)CN(S(=O)(=O)NC3CC3)C2)c(OC(F)F)n1 [Ex 15-13, 1-(N-cyclopropylsulfamoyl)-N-(2-(difluoromethoxy)-6-methylpyridin-3-yl)-3-(2-isopropylphenyl)azetidine-3-carboxamide]"
